Key:
Format in all cases: cell-based
[1] = system: Human retinal pigment epithelium cells (ARPE-19 cells); assay: Barrier function: passage of 3,000 Dalton FITC-labeled dextran from apical to basolateral media of tBH-treated ARPE-19 cells; conditions: 100 nM Compound A plus 100 μM tBH; dextran added at 20 hours, fluorescence at 44 hours; FIG. 2
Experimental: (§1) Human retinal pigment epithelium cells (ARPE-19 cells, purchased from American Type Culture Collection (ATCC)) were used in the study. ARPE-19 cells were grown on Corning Transwell 0.4 μm pore size filters (Corning Incorporated, NY, USA) in Dulbecco's modified Eagles medium containing 10% fetal calf serum. Trans-Epithelial Resistance (TER) of the cultured cells was determined using an EVOM volt-ohm meter. The TER of the cultured cells was determined by subtracting the resistance value measured with the filter alone from the value measured with the cultured cells.
ARPE-19 cells grown until they reached a TER of approximately 50 Ohm/1.2 cm^2 were treated with 100 μM tBH in 0.1% decane, 100 nM Compound A in DMSO (0.1% final DMSO), or a combination of tBH plus Compound A (initial treatment). At 20 hours after the initial treatment, 3,000 Dalton FITC-labeled dextran was added at a concentration of 0.1 mg/ml to the apical surface of the cell culture and the culture was further incubated. Fluorescence of the media bathing the basolateral surface was then measured at 44 hours. Wavelengths for FITC were 494 ex/518 em.

[2] = system: Human retinal pigment epithelium cells (ARPE-19 cells); assay: Trans-Epithelial Resistance (TER) of ARPE-19 cells treated with tert-butyl hydroperoxide (tBH); conditions: 100 nM Compound A plus 100 μM tBH; TER at 0, 6, 18, 24 and 48 hours; FIG. 1
Experimental: as §1
The cells were grown until they reached a TER of approximately 50 Ohm/1.2 cm^2. They were then treated with 100 μM tert-butyl hydroperoxide (tBH) in 0.1% decane, 100 nM Compound A (isopropyl unoprostone, i.e. 13,14-dihydro-15-keto-20-ethyl-PGF2α isopropyl ester) in DMSO (0.1% final DMSO), or a combination of tBH plus Compound A. TER was determined at 0, 6, 18, 24 and 48 hours after the treatment.

[3] = system: Human retinal pigment epithelium cells (ARPE-19 cells); assay: Protection from light induced cell death in A2E containing RPE cells (WST-8 viability)
Experimental: Protection by Compound A from light induced cell death in pyridinium bis-retinoid (A2E) containing retinal pigment epithelium (RPE) cells
Human retinal pigment epithelium cells (ARPE-19 cells) were used in the study. ARPE-19 cells were maintained in DMEM/F12 medium (supplemented with 10% FBS and 1% Penicillin-Streptomycin Mixed Sol.) in 25 cm^2 or 75 cm^2 culture flask. For the experiment, the cells were seeded on multi-well chamber slides. After confirming the cells adhered to slide, the media were changed to pyridinium bis-retinoid (A2E) containing culture medium and the cells were cultured for 5-14 days The media were changed to phosphate buffered saline (containing A2E), and then the cells were exposed to blue light (430 nm) delivered from a halogen source for 20 min. Compound A dissolved in dimethyl sulfoxide was added 1 hr before the light: exposure (the final concentration was 10 and 50 nM). After the light exposure, the cells were cultured in the DMEM/F12 medium for 24 hours. The cells were then incubated in DMEM/F12 medium containing 10% WST-8 (without A2Z) for 4 hours. Absorbance at 450 nm was measured. An increase in the absorbance is indicative of cellular viability.

`CCCCCCCC(=O)CC[C@@H]1[C@@H](C/C=C\CCCC(=O)OC(C)C)[C@@H](O)C[C@H]1O` [Compound A, 13,14-dihydro-15-keto-20-ethyl-PGF2α isopropyl ester] was tested, and the “Effect on the loss of barrier function caused by tBH (passage of 3,000 Dalton fluorescent dextran)” value [1] was “protected against the loss of barrier function caused by tBH”, the “Effect on the loss of TER caused by tBH” value [2] was “protected against the loss of TER caused by tBH” and the “Effect on cell death induced by A2E/light exposure” value ([3]; 10 and 50 nM, A2E + blue light exposure) was “prevented cell death induced by A2E/light exposure”. The viability at 0.01 µM ([3]; Homo sapiens, ARPE-19, 10 nM, A2E + light exposure (430 nm, 20 min), compound added 1 hr before light, WST-8 after 24 hours) was 90% and the viability at 0.05 µM ([3]; Homo sapiens, ARPE-19, 50 nM, A2E + light exposure (430 nm, 20 min), compound added 1 hr before light, WST-8 after 24 hours) was 89%.

Source: US8609729B2, “Method for treating macular degeneration” (Sucampo AG, priority 2009, dated 2013)
